The series is described as follows: Photoacoustic imaging of dyes in agar phantoms (VEVO LAZR 2100, PA scanning mode 680-900 nm). The format is physicochemical. The following applies: agar phantom, 63 μM B107, 50 μM ICG in DMF. The method, then:
Indocyanine Green (ICG), was obtained from Sigma-Aldrich (Catalogue No. I2633; Sigma-Aldrich Corp., St. Louis, Missouri, United States of America). The nickel bacteriochlorin B107 was prepared as described in Sun et al., 2013 and Chen et al, 2012. Each dye was dissolved in N,N-dimethylformamide (DMF) at the desired concentrations prior to the imaging experiments. Molds for preparing agar phantoms were typically 90 mm diameter glass Petri dishes.
A highly purified agar powder (Catalogue No. A7921; Sigma-Aldrich Corp., St. Louis, Missouri, United States of America) was dissolved in water (Reagent Grade, Type I) to a final concentration of 2.0% and heated to the melting temperature of 95° C. in a microwave oven. […] The bottle containing agar was held at 75-85° C. for 1-3 hours using a standard hot plate and a double boiler to avoid scorching (which causes a detectable increase in the absorption coefficient). This waiting period at an elevated temperature allows the slow release of air bubbles and produces an agar solution with negligible absorption and very low turbidity. […]
Photoacoustic imaging was performed using a VEVO® LAZR^2100 imaging system (VisualSonics, Inc., Toronto, Ontario, Canada) equipped with software version 1.7.2. […] The tubing and its associated image regions were isolated by ultrasound and PA signals for PA intensity quantitation. […]

Regarding `CC1(C)C(/C=C/C=C/C=C/C=C2\N(CCCCS(=O)(=O)O)c3ccc4ccccc4c3C2(C)C)=[N+](CCCCS(=O)(=O)[O-])c2ccc3ccccc3c21` [ICG, Indocyanine Green], the “Max (nm) of PAI signal” value runs as follows: (depth 3 mm) 790 nm; (depth 6 mm) 795 nm.

For the origin of these results see patent US20240082431A1, “METALLOHYDROPORPHYRINS FOR PHOTOACOUSTIC IMAGING” (NIRvana Sciences, Inc., priority 2021, published 2024).
